Experimental data reported in ChEMBL document CHEMBL3045985, “Three-dimensional common-feature hypotheses for hypoglycemic flavonyl-2,4-thiazolidinedione derivatives” (2010).

Key:
Assay type in all cases: functional
INS1 [1] = assay: Hypoglycemic activity in Rattus norvegicus (rat) INS1 cells assessed as glucose-mediated insulin release after 90 min (reference value: 62.96 +/- 5.68 to 69.70 +/- 4.98 %)
INS1 [2] = assay: Hypoglycemic activity in Rattus norvegicus (rat) INS1 cells assessed as insulin release at 5.6 mmol/l after 90 min (reference value: 62.96 +/- 5.68 to 69.70 +/- 4.98 %)
INS1 [3] = assay: Hypoglycemic activity in Rattus norvegicus (rat) INS1 cells assessed as glucose-mediated insulin release at 1 ug/ml after 90 min (reference value: 62.96 +/- 5.68 to 69.70 +/- 4.98 %)
INS1 [4] = assay: Hypoglycemic activity in Rattus norvegicus (rat) INS1 cells assessed as glucose-mediated insulin release at 10 umol/l after 90 min (reference value: 62.96 +/- 5.68 to 69.70 +/- 4.98 %)

O=C1NC(=S)N/C1=C\c1ccc(-c2cc(=O)c3ccccc3o2)cc1
Activity (INS1 [1]): 130.3%

CN1C(=O)/C(=C/c2ccc(-c3cc(=O)c4ccccc4o3)cc2)N(C)C1=S
Activity (INS1 [1]): 114.3%

CCN1C(=O)/C(=C/c2ccc(-c3cc(=O)c4ccccc4o3)cc2)N(CC)C1=S
Activity (INS1 [1]): 96.27%

O=C1NC(=O)C(Cc2cccc(-c3cc(=O)c4ccccc4o3)c2)S1 (stereo not drawn)
Activity (INS1 [1]): 69.89%

O=C1NC(=O)/C(=C\c2cccc(-c3cc(=O)c4ccccc4o3)c2)S1
Activity (INS1 [1]): 79.76%

CN1C(=O)S/C(=C/c2cccc(-c3cc(=O)c4ccccc4o3)c2)C1=O
Activity (INS1 [1]): 134.9%

CCN1C(=O)S/C(=C/c2cccc(-c3cc(=O)c4ccccc4o3)c2)C1=O
Activity (INS1 [1]): 299%

O=C1NC(=O)/C(=C\c2cccc(-c3cc(=O)c4ccccc4o3)c2)N1
Activity (INS1 [1]): 103.3%

CN1C(=O)/C(=C\c2cccc(-c3cc(=O)c4ccccc4o3)c2)N(C)C1=O
Activity (INS1 [1]): 218.3%

CCN1C(=O)N/C(=C/c2cccc(-c3cc(=O)c4ccccc4o3)c2)C1=O
Activity (INS1 [1]): 167.8%

O=C1NC(=S)N/C1=C/c1cccc(-c2cc(=O)c3ccccc3o2)c1
Activity (INS1 [1]): 247.1%

CN1C(=O)/C(=C\c2cccc(-c3cc(=O)c4ccccc4o3)c2)N(C)C1=S
Activity (INS1 [1]): 102.8%

CCN1C(=O)/C(=C\c2cccc(-c3cc(=O)c4ccccc4o3)c2)NC1=S
Activity (INS1 [1]): 129.6%

O=C1NC(=O)C(Cc2ccc(-c3cc(=O)c4ccccc4o3)cc2)S1 (stereo not drawn)
Activity (INS1 [1]): 135.5%

CN1C(=O)S/C(=C\c2ccc(-c3cc(=O)c4ccccc4o3)cc2)C1=O
Activity (INS1 [1]): 145.1%

CCN1C(=O)S/C(=C\c2ccc(-c3cc(=O)c4ccccc4o3)cc2)C1=O
Activity (INS1 [1]): 117.9%

O=C1NC(=O)/C(=C/c2ccc(-c3cc(=O)c4ccccc4o3)cc2)N1
Activity (INS1 [1]): 105.1%

CN1C(=O)/C(=C/c2ccc(-c3cc(=O)c4ccccc4o3)cc2)N(C)C1=O
Activity (INS1 [1]): 103.4%

CCN1C(=O)/C(=C/c2ccc(-c3cc(=O)c4ccccc4o3)cc2)N(CC)C1=O
Activity (INS1 [1]): 127.1%

O=C1NC(=O)/C(=C/c2ccc(-c3cc(=O)c4ccccc4o3)cc2)S1
Activity (INS1 [1]): 55.7%

OC[C@H]1OC(O)[C@H](O)[C@@H](O)[C@@H]1O (stereo partly drawn) [DEXTROSE]
Activity (INS1 [2]): 100%

COc1ccc(Cl)cc1C(=O)NCCc1ccc(S(=O)(=O)NC(=O)NC2CCCCC2)cc1 [GLYBURIDE]
Activity (INS1 [3]): 210.4%

CN(CCOc1ccc(CC2SC(=O)NC2=O)cc1)c1ccccn1 (stereo not drawn) [ROSIGLITAZONE]
Activity (INS1 [4]): 116%
